Reference: patent US20060276340A1, “HERBICIDE COMPOSITION COMPRISING PYRIBAMBENZ-PROPYL OR PYRIBAMBENZ-ISOPROPYL” (Zhejiang Chem-Tech Group Co., Ltd., priority 2003, published 2006)

Legend:
Format in all cases: in vivo
[1] = test system: Cerastium arvense; assay: greenhouse pot test, post-emergence early stage treatment
Method: (§1) The test soil is a formulated sandy loam soil. 9.5 centimeter diameter pots are used for herbicidal activity test.
(§2) The pots for post-emergence treatment are placed into a greenhouse and incubated for 7 to 9 days, and then subjected to leave treatment by spraying. The preparation liquid for the treatment prepared by mixing individual single-herbicides was diluted with water to the desired dosage.
(§3) The treated pots stood for one day, then were placed in a greenhouse and watered regularly. The herbicidal activities of the compositions were evaluated by visual examination after incubating for 14 to 21 days.
(§4) The herbicidal activities of the compositions were evaluated by plant symptoms such as stunting, deformity, chlorosis, and whitening. 0 represents that the compositions have no herbicidal effect or have safety to crops. 100 represents that the weeds or crops were completely killed.

[2] = test system: Alopercurus japonicus; assay: as above; settings: ALOJA
Method: as §1, §2, §3, §4

[3] = test system: Galium aparine; assay: as above
Method: as §1, §2, §3, §4

[4] = test system: Poa annua; assay: as above
Method: as §1, §2, §3, §4

[5] = test system: Veronica didyma; assay: greenhouse pot test, post-emergence treatment; settings: VERDI
Method: as §1, §2, §3, §4

[6] = test system: Alopercurus japonicus; assay: greenhouse pot test, post-emergence treatment; settings: ALOJA
Method: as §1, §2, §3, §4

[7] = test system: Galium aparine; assay: greenhouse pot test, post-emergence treatment
Method: as §1, §2, §3, §4

[8] = test system: Poa annua; assay: greenhouse pot test, post-emergence treatment; settings: POAAN
Method: as §1, §2, §3, §4

[9] = test system: weeds in rape field; assay: weed control in rape field, descriptive statements
[10] = test system: Beckmannia syzigachne; assay: greenhouse pot test, post-emergence early stage treatment; settings: BECSY 2˜3 leaves
Method: as §1, §2, §3, §4

[11] = test system: Polypogon fugax; assay: greenhouse pot test, post-emergence treatment; settings: POLFU 4˜4.5 leaves
Method: as §1, §2, §3, §4

[12] = test system: Cerastium arvense; assay: greenhouse pot test, post-emergence treatment; settings: CERAR 6 leaves
Method: as §1, §2, §3, §4

[13] = test system: Alopecurus aequalis; assay: greenhouse pot test, post-emergence treatment; settings: ALOAE 3 leaves
Method: as §1, §2, §3, §4

[14] = test system: Polypogon fugax; assay: greenhouse pot test, pre-emergence treatment; settings: POLFU
Method: as §1
(§5) The soil in the pot for the pre-emergence test was sprayed one day after planting. The preparation liquid for the treatment prepared by mixing individual single-herbicides was diluted with water to the desired dosage.
as §3, §4

[15] = test system: Cerastium arvense; assay: greenhouse pot test, pre-emergence treatment; settings: CERAR
Method: as §1, §5, §3, §4

[16] = test system: Galium aparine; assay: greenhouse pot test, pre-emergence treatment; settings: GALAP
Method: as §1, §5, §3, §4

[17] = test system: Alopecurus aequalis; assay: greenhouse pot test, pre-emergence treatment; settings: ALOAE
Method: as §1, §5, §3, §4

[18] = test system: Polypogon fugax; assay: greenhouse pot test, Tables 1-2; settings: POLFU 3-4 leaves
Method: as §1, §5, §2, §3, §4

[19] = test system: Beckmannia syzigachne; assay: greenhouse pot test, Tables 1-2; settings: BECSY 2 leaves
Method: as §1, §5, §2, §3, §4

[20] = test system: Digitrria sanguinalis; assay: greenhouse pot test, Tables 1-2; settings: DIGSA 3 leaves
Method: as §1, §5, §2, §3, §4

[21] = test system: Poa annua; assay: greenhouse pot test, Tables 1-2; settings: POAAN 3 leaves
Method: as §1, §5, §2, §3, §4

[22] = test system: Alopecurus aequalis; assay: greenhouse pot test, Tables 1-2
Method: as §1, §5, §2, §3, §4

CCOCN(C(=O)CCl)c1c(C)cccc1CC [acetochlor]
visual evaluation of weed effects ([1]; CERAR, 150 g/ha): 70%
visual evaluation of weed effects ([1]; CERAR, 300 g/ha): 85%
visual evaluation of weed effects ([1]; CERAR, 450 g/ha): 85%
visual evaluation of weed effects ([1]; CERAR, 600 g/ha): 85%
visual evaluation of weed effects ([2]; 150 g/ha): 60%
visual evaluation of weed effects ([2]; 300 g/ha): 90%
visual evaluation of weed effects ([2]; 450 g/ha): 95%
visual evaluation of weed effects ([2]; 600 g/ha): 95%
visual evaluation of weed effects ([3]; GALAP, 150 g/ha): 40%
visual evaluation of weed effects ([3]; GALAP, 300 g/ha): 50%
visual evaluation of weed effects ([3]; GALAP, 450 g/ha): 60%
visual evaluation of weed effects ([3]; GALAP, 600 g/ha): 70%
visual evaluation of weed effects ([4]; POAAN, 150 g/ha): 70%
visual evaluation of weed effects ([4]; POAAN, 300 g/ha): 90%
visual evaluation of weed effects ([4]; POAAN, 450 g/ha): 95%
visual evaluation of weed effects ([4]; POAAN, 600 g/ha): 95%

O=C(O)Cn1c(=O)sc2cccc(Cl)c21 [benazolin]
visual evaluation of weed effects ([5]; 75 g/ha): 60%
visual evaluation of weed effects ([5]; 150 g/ha): 90%
visual evaluation of weed effects ([5]; 225 g/ha): 98%
visual evaluation of weed effects ([5]; 300 g/ha): 100%
visual evaluation of weed effects ([6]; 75 g/ha): 0%
visual evaluation of weed effects ([6]; 150 g/ha): 0%
visual evaluation of weed effects ([6]; 225 g/ha): 0%
visual evaluation of weed effects ([6]; 300 g/ha): 0%
visual evaluation of weed effects ([7]; GALAP, 75 g/ha): 70%
visual evaluation of weed effects ([7]; GALAP, 150 g/ha): 90%
visual evaluation of weed effects ([7]; GALAP, 225 g/ha): 100%
visual evaluation of weed effects ([7]; GALAP, 300 g/ha): 100%
visual evaluation of weed effects ([8]; 75 g/ha): 0%
visual evaluation of weed effects ([8]; 150 g/ha): 0%
visual evaluation of weed effects ([8]; 225 g/ha): 0%
visual evaluation of weed effects ([8]; 300 g/ha): 0%

CCOc1nc(NC)nc(NC(=O)NS(=O)(=O)c2ccccc2C(=O)O)n1 [ethametsulfuron]
weed control ([9]; grass weeds): rather moderate control
weed control ([9]; most of broadleaf weeds): remarkable control
visual evaluation of weed effects ([1]; CERAR 3˜4 leaves, ethametsulfuron 6 g/ha): 90%
visual evaluation of weed effects ([1]; CERAR 3˜4 leaves, ethametsulfuron 9 g/ha): 90%
visual evaluation of weed effects ([10]; ethametsulfuron 6 g/ha): 40%
visual evaluation of weed effects ([10]; ethametsulfuron 9 g/ha): 40%
visual evaluation of weed effects ([3]; GALAP 7˜8 leaves, ethametsulfuron 6 g/ha): 90%
visual evaluation of weed effects ([3]; GALAP 7˜8 leaves, ethametsulfuron 9 g/ha): 90%
visual evaluation of weed effects ([4]; POAAN 2˜3 leaves, ethametsulfuron 6 g/ha): 70%
visual evaluation of weed effects ([4]; POAAN 2˜3 leaves, ethametsulfuron 9 g/ha): 80%
visual evaluation of weed effects ([11]; 6 g/ha): 60%
visual evaluation of weed effects ([11]; 7.5 g/ha): 60%
visual evaluation of weed effects ([11]; 9 g/ha): 70%
visual evaluation of weed effects ([12]; 6 g/ha): 90%
visual evaluation of weed effects ([12]; 7.5 g/ha): 90%
visual evaluation of weed effects ([12]; 9 g/ha): 90%
visual evaluation of weed effects ([7]; GALAP 7˜8 leaves, 6 g/ha): 85%
visual evaluation of weed effects ([7]; GALAP 7˜8 leaves, 7.5 g/ha): 90%
visual evaluation of weed effects ([7]; GALAP 7˜8 leaves, 9 g/ha): 90%
visual evaluation of weed effects ([13]; 6 g/ha): 90%
visual evaluation of weed effects ([13]; 7.5 g/ha): 90%
visual evaluation of weed effects ([13]; 9 g/ha): 90%
visual evaluation of weed effects ([14]; 6 g/ha): 60%
visual evaluation of weed effects ([14]; 7.5 g/ha): 70%
visual evaluation of weed effects ([14]; 9 g/ha): 75%
visual evaluation of weed effects ([15]; 6 g/ha): 85%
visual evaluation of weed effects ([15]; 7.5 g/ha): 90%
visual evaluation of weed effects ([15]; 9 g/ha): 95%
visual evaluation of weed effects ([16]; 6 g/ha): 10%
visual evaluation of weed effects ([16]; 7.5 g/ha): 40%
visual evaluation of weed effects ([16]; 9 g/ha): 70%
visual evaluation of weed effects ([17]; 6 g/ha): 80%
visual evaluation of weed effects ([17]; 7.5 g/ha): 90%
visual evaluation of weed effects ([17]; 9 g/ha): 95%

CCOC(=O)C(C)Oc1ccc(Oc2cnc3cc(Cl)ccc3n2)cc1 (stereo not drawn) [quizalofop-ethyl]
weed control ([9]; Poa annua): weak activity
weed control ([9]; most of grasses, even herbicide-resistant sclerochloa kengiana and Beckmannia syzigachne): excellent control
visual evaluation of weed effects ([1]; CERAR 3˜4 leaves, quizalofop-ethyl 6 g/ha): 0%
visual evaluation of weed effects ([1]; CERAR 3˜4 leaves, quizalofop-ethyl 9 g/ha): 0%
visual evaluation of weed effects ([1]; CERAR 3˜4 leaves, quizalofop-ethyl 12 g/ha): 0%
visual evaluation of weed effects ([1]; CERAR 3˜4 leaves, quizalofop-ethyl 15 g/ha): 0%
visual evaluation of weed effects ([10]; quizalofop-ethyl 6 g/ha): 98%
visual evaluation of weed effects ([10]; quizalofop-ethyl 9 g/ha): 100%
visual evaluation of weed effects ([10]; quizalofop-ethyl 12 g/ha): 100%
visual evaluation of weed effects ([10]; quizalofop-ethyl 15 g/ha): 100%
visual evaluation of weed effects ([3]; GALAP 7˜8 leaves, quizalofop-ethyl 6 g/ha): 0%
visual evaluation of weed effects ([3]; GALAP 7˜8 leaves, quizalofop-ethyl 9 g/ha): 0%
visual evaluation of weed effects ([3]; GALAP 7˜8 leaves, quizalofop-ethyl 12 g/ha): 0%
visual evaluation of weed effects ([3]; GALAP 7˜8 leaves, quizalofop-ethyl 15 g/ha): 0%
visual evaluation of weed effects ([4]; POAAN 2˜3 leaves, quizalofop-ethyl 6 g/ha): 0%
visual evaluation of weed effects ([4]; POAAN 2˜3 leaves, quizalofop-ethyl 9 g/ha): 0%
visual evaluation of weed effects ([4]; POAAN 2˜3 leaves, quizalofop-ethyl 12 g/ha): 50%
visual evaluation of weed effects ([4]; POAAN 2˜3 leaves, quizalofop-ethyl 15 g/ha): 60%
visual evaluation of weed effects ([18]; 6 g/ha): 30%
visual evaluation of weed effects ([18]; 9 g/ha): 100%
visual evaluation of weed effects ([18]; 12 g/ha): 100%
visual evaluation of weed effects ([18]; 15 g/ha): 100%
visual evaluation of weed effects ([19]; 6 g/ha): 95%
visual evaluation of weed effects ([19]; 9 g/ha): 95%
visual evaluation of weed effects ([19]; 12 g/ha): 98%
visual evaluation of weed effects ([19]; 15 g/ha): 98%
visual evaluation of weed effects ([20]; 6 g/ha): 100%
visual evaluation of weed effects ([20]; 9 g/ha): 100%
visual evaluation of weed effects ([20]; 12 g/ha): 100%
visual evaluation of weed effects ([20]; 15 g/ha): 100%
visual evaluation of weed effects ([21]; 6 g/ha): 0%
visual evaluation of weed effects ([21]; 9 g/ha): 10%
visual evaluation of weed effects ([21]; 12 g/ha): 10%
visual evaluation of weed effects ([21]; 15 g/ha): 10%
visual evaluation of weed effects ([22]; ALOAE 0 leaf, 6 g/ha): 85%
visual evaluation of weed effects ([22]; ALOAE 0 leaf, 9 g/ha): 85%
visual evaluation of weed effects ([22]; ALOAE 0 leaf, 12 g/ha): 85%
visual evaluation of weed effects ([22]; ALOAE 0 leaf, 15 g/ha): 85%
visual evaluation of weed effects ([22]; ALOAE 3 leaves, 6 g/ha): 98%
visual evaluation of weed effects ([22]; ALOAE 3 leaves, 9 g/ha): 100%
visual evaluation of weed effects ([22]; ALOAE 3 leaves, 12 g/ha): 100%
visual evaluation of weed effects ([22]; ALOAE 3 leaves, 15 g/ha): 100%
